From US6433022B1, “Spermicide” (Medical Research Council, priority 1997, dated 2002)

Key:
Type in all cases: cell-based
human spermatozoa [1] = test: Effect of inhibitors on NADPH-induced ROS generation, lucigenin-dependent chemiluminescence; conditions: for Lucigenin dependent chemiluminescence: Treated, NADPH-induced, means ± SE; for effect on NADPH-dependent reactive oxygen species generation: dicoumarol 100 μM, sodium oxamate 1 mM, allopurinol 10 mM; for effect of mitochondrial electron transport chain inhibitors on response to NADPH: intact spermatozoa; for inhibition of the response to NAD(P)H: triton permeabilized cells
Description: ROS generation was monitored by luminometry employing the chemiluminescence probes lucigenin and luminol. Lucigenin is sensitive to the presence of superoxide anion and was used to monitor the free radical responses to NAD(P)H. Luminol, when used in conjunction with horseradish peroxidase (HRP; Sigma Type Vl, 288 U/mg), detects mainly hydrogen peroxide (Aitken et al., 1992) and was used to monitor the responses of spermatozoa to PMA (phorbol 12-myristate, 13-acetate), an activator of protein kinase C. […] Photon emission was monitored at 37° C. using the Bermold 9505B luminometer (Berthold, Wilbad, Germany) featuring 6 electronically compensated, peltier cooled, photomultipliers and the results expressed as counts/minute. For both of the probes used, 400 μl of spermatozoa, at a concentration of 10×10^6/ml, were placed in a 3 ml plastic, flat-bottomed plastic tube. For luminol-based reactions, the spermatozoa were suspended in BWW supplemented with Albuminar, but when lucigenin was used the Albuminar was replaced with 1 mg/ml polyvinyl alcohol. A 4 μl aliquot of a 25 mM stock solution of either luminol or lucigenin m-dimethyl sulphoxide (DMSO), was then added to the cell suspension, resulting in a final probe concentration of 250 μM. For the measurement of hydrogen peroxide generation by intact cells, luminol-dependent chemiluminescence was enhanced by addition of 8 μl of HRP, freshly prepared at a concentration of 2 mg/ml in PBS, to give a final HRP concentration of 11.52 U/ml. The luminometer results were recorded as continuous traces and as integrated photon counts over a fixed period of time (5 min).
(§1) In all experiments, DPI was added to the spermatozoa before the addition of NADPH or PMA while control incubations were supplemented with DMSO alone. ROS generation was recorded for approximately 10 min to establish a steady state signal and then 45 μl of NADPH (final concentration 500 μM) or 4 μl of PMA (final concentration 100 nM) were added and the responses monitored for around 20 min using lucigenin and luminol-peroxidase based chemiluminescence respectively.
Quinacrine was purchased from Sigma and dissolved in 10% DMSO to give a stock solution of 10 mM. […] The impact of quinacrine on NADPH- and PMA-induced ROS generation was monitored as described above for DPI.

human spermatozoa [2] = test: Effect of inhibitors on PMA-induced hydrogen peroxide production, luminol-peroxidase chemiluminescence; conditions: 100 nM PMA
Description: ROS generation was monitored by luminometry employing the chemiluminescence probes lucigenin and luminol. Lucigenin is sensitive to the presence of superoxide anion and was used to monitor the free radical responses to NAD(P)H. Luminol, when used in conjunction with horseradish peroxidase (HRP; Sigma Type Vl, 288 U/mg), detects mainly hydrogen peroxide (Aitken et al., 1992) and was used to monitor the responses of spermatozoa to PMA (phorbol 12-myristate, 13-acetate), an activator of protein kinase C. […] Photon emission was monitored at 37° C. using the Bermold 9505B luminometer (Berthold, Wilbad, Germany) featuring 6 electronically compensated, peltier cooled, photomultipliers and the results expressed as counts/minute. […] The luminometer results were recorded as continuous traces and as integrated photon counts over a fixed period of time (5 min).
as §1, with “respectively. […]” for “respectively.”

human spermatozoa [3] = test: Nicotinamide dinucleotide-induced superoxide generation, lucigenin-dependent chemiluminescence; conditions: 500 μM nucleotide
Description: ROS generation was monitored by luminometry employing the chemiluminescence probes lucigenin and luminol. Lucigenin is sensitive to the presence of superoxide anion and was used to monitor the free radical responses to NAD(P)H. Luminol, when used in conjunction with horseradish peroxidase (HRP; Sigma Type Vl, 288 U/mg), detects mainly hydrogen peroxide (Aitken et al., 1992) and was used to monitor the responses of spermatozoa to PMA (phorbol 12-myristate, 13-acetate), an activator of protein kinase C. NAD(P)H could not be used with the luminol-peroxidase system because of the generation of high background signals, presumably due to the oxidase reactions of HRP. Photon emission was monitored at 37° C. using the Bermold 9505B luminometer (Berthold, Wilbad, Germany) featuring 6 electronically compensated, peltier cooled, photomultipliers and the results expressed as counts/minute. For both of the probes used, 400 μl of spermatozoa, at a concentration of 10×10^6/ml, were placed in a 3 ml plastic, flat-bottomed plastic tube. For luminol-based reactions, the spermatozoa were suspended in BWW supplemented with Albuminar, but when lucigenin was used the Albuminar was replaced with 1 mg/ml polyvinyl alcohol. A 4 μl aliquot of a 25 mM stock solution of either luminol or lucigenin m-dimethyl sulphoxide (DMSO), was then added to the cell suspension, resulting in a final probe concentration of 250 μM. For the measurement of hydrogen peroxide generation by intact cells, luminol-dependent chemiluminescence was enhanced by addition of 8 μl of HRP, freshly prepared at a concentration of 2 mg/ml in PBS, to give a final HRP concentration of 11.52 U/ml. The luminometer results were recorded as continuous traces and as integrated photon counts over a fixed period of time (5 min).
The ability of human spermatozoa to generate superoxide anion in response to NADPH was monitored by lucigenin-dependent chemiluminescence and compared with its non-phosphorylated and non-reduced counterparts, i.e. NADH, NADP^+ and NAD^+. In addition, the stimulatory properties of an isomer of NADPH, usually non-active in reductive biosynthesis, were examined. All pyridine nucleotides were made up to the required concentration in PBS immediately prior to use. Stock solutions of the nucleotides were made up at concentrations 10 fold higher than the required final working concentration, to allow for a 10 fold dilution on addition to the suspensions of spermatozoa.

human sperm = test: Effect of quinones on sperm motility; conditions: for mean motility score: 50 μM quinone, human sperm
Method: Following the preparation of spermatozoa by standard Percoll gradient they were resuspended in homologous seminal plasma to a concentration of 20 million per ml, immediately prior to the beginning of the experiment. 50 μl of the sperm suspension was placed in an eppendorf tube, and the quinone was either added alone or in combination with other reagents, for example, KI, HRP (Horseradish Peroxidase), BHT (butylated hydroxytoluene) etc. depending on the experiment. The volume was made up to 100 μl with BWW/PVA.
The quinone was always the final reagent to be added. […] The sample was gently agitated and 10 μl was placed on a slide and a motility was scored. The aim was to score a motility approximately 20 seconds following the addition of the quinone. There were two controls set up, one motility count taken at the beginning of the experiment (initial control) and one motility count taken at the end of the experiment (final control). The controls consisted of 50 μl of the sperm suspension followed by the addition of 50 μl BWW/PVA. The reason for having two controls was to observe if any changes in sperm motility had occurred simply as a factor of time, i.e. from residing in seminal plasma for a long duration. At all times during the experiment, the spermatozoa were incubated in a hot box at 24° C. All motility experiments were carried out on sperm suspended in seminal plasma unless otherwise stated.

## Oc1ncnc2[nH]ncc12 [Allopurinol, allopurinol]
Human spermatozoa [1]; inhibitor 10 mM
  Lucigenin dependent chemiluminescence: 7.19 ± 1.66 counts/5 min × 104
Human spermatozoa [1]
  effect on NADPH-dependent reactive oxygen species generation: ineffective

## N#CC(C#N)=NNc1cccc(Cl)c1 [CCP, carbonyl cyanide m-chlorophenylhydrazone]
Human spermatozoa [1]; inhibitor 10 μM
  Lucigenin dependent chemiluminescence: 12.61 ± 6.97 counts/5 min × 104
Human spermatozoa [1]
  effect of mitochondrial electron transport chain inhibitors on response to NADPH: none of which were effective

## c1ccc2c(c1)[I+]c1ccccc1-2 [DPI, Diphenylene Iodonium]
Human spermatozoa [1]; 500 μM NADPH, statistically significant at the 1 μM level (P<0.001)
  suppression of NADPH-induced free radical generation: dose-dependent capacity to suppress
Human spermatozoa [2]; dose range 0.01-100 μM
  inhibition of PMA-stimulated hydrogen peroxide production: competent to inhibit

## O=c1oc2ccccc2c(O)c1Cc1c(O)c2ccccc2oc1=O [Dicoumarol, dicoumarol]
Human spermatozoa [1]; inhibitor 100 μM
  Lucigenin dependent chemiluminescence: 5.20 ± 2.10 counts/5 min × 104
Human spermatozoa [1]
  effect on NADPH-dependent reactive oxygen species generation: ineffective

## NC(=O)C1=CN([C@@H]2O[C@H](COP(=O)(O)OP(=O)(O)OC[C@H]3O[C@@H](n4cnc5c(N)ncnc54)[C@H](O)[C@@H]3O)[C@@H](O)[C@H]2O)C=CC1 [NADH]
Human spermatozoa [3]
  lucigenin-dependent chemiluminescent response (superoxide anion generation): approximately one third of that induced by β-NADPH

## NC(=O)c1ccc[n+]([C@@H]2O[C@H](COP(=O)([O-])OP(=O)(O)OC[C@H]3O[C@@H](n4cnc5c(N)ncnc54)[C@H](OP(=O)(O)O)[C@@H]3O)[C@@H](O)[C@H]2O)c1 [NADP^+]
Human spermatozoa [3]
  lucigenin-dependent chemiluminescent response (superoxide anion generation): almost completely without effect

## NC(=O)c1ccc[n+]([C@@H]2O[C@H](COP(=O)([O-])OP(=O)(O)OC[C@H]3O[C@@H](n4cnc5c(N)ncnc54)[C@H](O)[C@@H]3O)[C@@H](O)[C@H]2O)c1 [NAD^+]
Human spermatozoa [3]
  lucigenin-dependent chemiluminescent response (superoxide anion generation): almost completely without effect

## C=C(C)[C@H]1Cc2c(ccc3c2O[C@@H]2COc4cc(OC)c(OC)cc4[C@@H]2C3=O)O1 [Rotenone, rotenone]
Human spermatozoa [1]; inhibitor 10 μM
  Lucigenin dependent chemiluminescence: 9.07 ± 2.26 counts/5 min × 104
Human spermatozoa [1]
  effect of mitochondrial electron transport chain inhibitors on response to NADPH: none of which were effective
  inhibition of the response to NAD(P)H: no inhibition

## NC(=O)C(=O)[O-].[Na+] [Sodium Oxamate, sodium oxamate]
Human spermatozoa [1]; inhibitor 1 mM
  Lucigenin dependent chemiluminescence: 5.20 ± 2.10 counts/5 min × 104
Human spermatozoa [1]
  effect on NADPH-dependent reactive oxygen species generation: ineffective

## [N-]=[N+]=[N-] [Sodium azide, sodium azide]
Human spermatozoa [1]; inhibitor 10 μM
  Lucigenin dependent chemiluminescence: 7.69 ± 1.54 counts/5 min × 104

## O=C1C=CC(=O)c2c(O)cccc21 [juglone]
Human sperm
  mean motility score: 5%
Human sperm; human sperm in seminal plasma, motility scored approximately 20 seconds after addition, read-out: ID50, dose-dependent inhibition of sperm motility
  IC50: ~10 µM

## O=C1C=C(O)C(=O)c2ccccc21 [lawsone]
Human sperm
  mean motility score: 51%

## CC[C@H]1/C=C/C=C/C[C@@H](C)[C@H](O)[C@@](C)(O)C(=O)[C@@H](C)[C@H](O)[C@@H](C)C(=O)[C@@H](C)[C@H](O)[C@@H](C)/C=C/C(=O)O[C@@H]2[C@H](C)[C@H](CC1)O[C@]1(CC[C@H](C)[C@H](C[C@@H](C)O)O1)[C@H]2C [oligomycin]
Human spermatozoa [1]
  inhibition of the response to NAD(P)H: no inhibition

## CC1=CC(=O)c2c(O)cccc2C1=O [plumbagin]
Human sperm
  mean motility score: 54%

## CCN(CC)CCCC(C)Nc1c2ccc(Cl)cc2nc2ccc(OC)cc12 (stereo not shown) [quinacrine]
Human spermatozoa [1]; 500 μM NADPH, concentrations as high as 50 μM, no dose/response relationship
  suppression of NADPH-induced ROS production: 30-40%
Human spermatozoa [2]; doses of 75-100 M
  suppression of responses to PMA: complete loss of activity

## NC(=O)C1=CN([C@H]2O[C@H](COP(=O)(O)OP(=O)(O)OC[C@H]3O[C@@H](n4cnc5c(N)ncnc54)[C@H](OP(=O)(O)O)[C@@H]3O)[C@@H](O)[C@H]2O)C=CC1 [α NADPH]
Human spermatozoa [3]
  lucigenin-dependent chemiluminescent response (superoxide anion generation): lack of response

## antimycin A
Human spermatozoa [1]; inhibitor 50 μM
  Lucigenin dependent chemiluminescence: 10.53 ± 2.49 counts/5 min × 104
Human spermatozoa [1]
  effect of mitochondrial electron transport chain inhibitors on response to NADPH: none of which were effective
  inhibition of the response to NAD(P)H: no inhibition
